Assay results as given in patent US10526316B2, “Quinoxaline and pyridopyrazine derivatives as PI3Kβ inhibitors” (Janssen Pharmaceutica NV, priority 2015, dated 2020).
Read-outs that look alike come from different tables or passages of the source.

Experiments:
kinase enzymes [1] = target: T1, kinase enzymes (Homo sapiens, UniProt P42336); assay: Enzyme binding assay (KINOMEscan, DiscoveRx), further kinases of Table A; details: PIK3Cα_h
T1 construct: purchased DiscoveRx Corporation, San Diego (contract service, KINOMEscan)
Method in brief: (§1)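 Binding affinities were measured on the KINOMEscan platform.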

kinase enzymes [2] = target: T2, kinase enzymes (Homo sapiens, UniProt P48736); assay: as above; details: PIK3Cγ_h
T2 construct: purchased DiscoveRx Corporation, San Diego (contract service, KINOMEscan)
Method in brief: as §1

kinase enzymes [3] = target: T3, kinase enzymes (Homo sapiens, UniProt P42345); assay: as above; details: MTOR_h
T3 construct: purchased DiscoveRx Corporation, San Diego (contract service, KINOMEscan)
Method in brief: as §1

[4] = test system: Akt phosphorylated at Thr308 in PC-3 cells; assay: Cellular assay: phosphorylation of Akt at Thr308 in PC-3 cells (MSD ELISA); format: cell-based; details: PC-3 cells, 60 min compound incubation, MSD ELISA, read-out: IC50 pAkt_Thr308
Method in brief: (§2)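 Electrochemiluminescent sandwich ELISA read-out: phospho-specific capture (Ser473 or Thr308), Sulfo-tag anti-total Akt detection, signal proportional to phospho-Akt. Cells treated 60 min at 37° C with compound, DMSO 0.3%. IC50 fitted from five concentrations.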

PI3Kδ = target: T4, PI3Kδ (Homo sapiens, UniProt O00329); assay: Enzyme binding assay (KINOMEscan, DiscoveRx); details: PIK3Cδ_h
T4 construct: purchased DiscoveRx Corporation, San Diego (contract service, KINOMEscan)
T4 sequence (O00329 1-1044): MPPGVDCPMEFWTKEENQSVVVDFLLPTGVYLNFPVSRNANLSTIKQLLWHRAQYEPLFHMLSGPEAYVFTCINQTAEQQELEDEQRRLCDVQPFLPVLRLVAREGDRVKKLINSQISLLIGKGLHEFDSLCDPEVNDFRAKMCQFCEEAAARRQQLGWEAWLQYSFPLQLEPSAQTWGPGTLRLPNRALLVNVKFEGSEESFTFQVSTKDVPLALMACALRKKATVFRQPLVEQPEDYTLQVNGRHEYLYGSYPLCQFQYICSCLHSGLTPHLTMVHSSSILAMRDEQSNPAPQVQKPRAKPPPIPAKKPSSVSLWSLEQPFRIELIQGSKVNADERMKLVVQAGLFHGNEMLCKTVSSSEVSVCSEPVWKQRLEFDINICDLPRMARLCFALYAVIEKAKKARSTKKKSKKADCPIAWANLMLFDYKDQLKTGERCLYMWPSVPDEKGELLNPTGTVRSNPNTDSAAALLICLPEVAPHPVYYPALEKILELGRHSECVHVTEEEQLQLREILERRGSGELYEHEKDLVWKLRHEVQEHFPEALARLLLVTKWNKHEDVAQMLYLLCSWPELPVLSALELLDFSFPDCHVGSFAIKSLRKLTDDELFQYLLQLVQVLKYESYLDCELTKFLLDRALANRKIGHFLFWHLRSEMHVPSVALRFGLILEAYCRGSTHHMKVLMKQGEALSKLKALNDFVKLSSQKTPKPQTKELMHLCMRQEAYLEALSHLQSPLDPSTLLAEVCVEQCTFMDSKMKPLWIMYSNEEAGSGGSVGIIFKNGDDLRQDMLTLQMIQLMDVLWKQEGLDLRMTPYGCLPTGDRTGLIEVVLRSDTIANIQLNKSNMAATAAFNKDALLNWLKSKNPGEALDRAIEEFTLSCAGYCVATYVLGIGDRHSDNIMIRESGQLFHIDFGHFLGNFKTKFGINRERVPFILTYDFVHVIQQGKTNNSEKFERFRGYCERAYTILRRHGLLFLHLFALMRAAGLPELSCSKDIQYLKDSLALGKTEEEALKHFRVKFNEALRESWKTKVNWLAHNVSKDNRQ
Method in brief: as §1

[5] = test system: Akt phosphorylated at Ser473 in PC-3 cells; assay: Cellular assay: phosphorylation of Akt at Ser473 in PC-3 cells (MSD ELISA); format: cell-based; details: PC-3 cells, 60 min compound incubation, MSD ELISA, read-out: IC50 pAkt_S473
Method in brief: as §2

PI3Kβ = target: T5, PI3Kβ (Homo sapiens, UniProt P42338); assay: Enzyme binding assay (KINOMEscan, DiscoveRx); details: PIK3Cβ_h, read-out: Kd PIK3Cβ_h
T5 construct: purchased DiscoveRx Corporation, San Diego (contract service, KINOMEscan)
Method in brief: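 Kinase binding affinities were measured with KINOMEscan technology. Results are given as Kd, the inhibitor binding constant, in nM.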

T2 sequence (P48736 whole entry): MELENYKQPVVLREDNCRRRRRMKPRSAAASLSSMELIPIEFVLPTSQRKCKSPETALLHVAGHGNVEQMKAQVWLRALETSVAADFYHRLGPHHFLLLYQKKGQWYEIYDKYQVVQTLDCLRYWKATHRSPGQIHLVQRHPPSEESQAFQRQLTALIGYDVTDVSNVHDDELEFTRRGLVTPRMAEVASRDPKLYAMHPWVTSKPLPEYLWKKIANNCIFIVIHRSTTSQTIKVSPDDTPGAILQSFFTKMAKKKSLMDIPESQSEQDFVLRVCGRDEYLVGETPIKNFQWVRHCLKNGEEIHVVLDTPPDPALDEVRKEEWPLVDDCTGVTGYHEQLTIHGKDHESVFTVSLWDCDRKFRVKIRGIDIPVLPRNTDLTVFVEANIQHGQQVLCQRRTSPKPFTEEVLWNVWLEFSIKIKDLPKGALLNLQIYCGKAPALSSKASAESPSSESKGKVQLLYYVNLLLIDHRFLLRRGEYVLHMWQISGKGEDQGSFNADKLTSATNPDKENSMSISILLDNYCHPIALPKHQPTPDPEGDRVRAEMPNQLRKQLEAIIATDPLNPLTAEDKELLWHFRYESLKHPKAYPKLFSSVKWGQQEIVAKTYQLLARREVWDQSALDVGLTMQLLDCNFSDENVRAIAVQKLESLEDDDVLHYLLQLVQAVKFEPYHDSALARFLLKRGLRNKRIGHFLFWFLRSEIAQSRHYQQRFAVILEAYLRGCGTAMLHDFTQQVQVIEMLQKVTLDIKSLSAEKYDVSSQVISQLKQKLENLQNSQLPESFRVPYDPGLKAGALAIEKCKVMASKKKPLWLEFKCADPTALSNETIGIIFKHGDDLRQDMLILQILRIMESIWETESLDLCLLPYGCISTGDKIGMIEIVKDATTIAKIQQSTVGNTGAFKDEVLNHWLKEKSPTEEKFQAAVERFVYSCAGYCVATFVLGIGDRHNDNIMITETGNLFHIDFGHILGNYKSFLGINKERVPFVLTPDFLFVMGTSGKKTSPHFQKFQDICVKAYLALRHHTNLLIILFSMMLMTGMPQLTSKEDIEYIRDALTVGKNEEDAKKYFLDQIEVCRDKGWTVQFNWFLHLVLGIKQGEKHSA
T1 sequence (P42336 whole entry): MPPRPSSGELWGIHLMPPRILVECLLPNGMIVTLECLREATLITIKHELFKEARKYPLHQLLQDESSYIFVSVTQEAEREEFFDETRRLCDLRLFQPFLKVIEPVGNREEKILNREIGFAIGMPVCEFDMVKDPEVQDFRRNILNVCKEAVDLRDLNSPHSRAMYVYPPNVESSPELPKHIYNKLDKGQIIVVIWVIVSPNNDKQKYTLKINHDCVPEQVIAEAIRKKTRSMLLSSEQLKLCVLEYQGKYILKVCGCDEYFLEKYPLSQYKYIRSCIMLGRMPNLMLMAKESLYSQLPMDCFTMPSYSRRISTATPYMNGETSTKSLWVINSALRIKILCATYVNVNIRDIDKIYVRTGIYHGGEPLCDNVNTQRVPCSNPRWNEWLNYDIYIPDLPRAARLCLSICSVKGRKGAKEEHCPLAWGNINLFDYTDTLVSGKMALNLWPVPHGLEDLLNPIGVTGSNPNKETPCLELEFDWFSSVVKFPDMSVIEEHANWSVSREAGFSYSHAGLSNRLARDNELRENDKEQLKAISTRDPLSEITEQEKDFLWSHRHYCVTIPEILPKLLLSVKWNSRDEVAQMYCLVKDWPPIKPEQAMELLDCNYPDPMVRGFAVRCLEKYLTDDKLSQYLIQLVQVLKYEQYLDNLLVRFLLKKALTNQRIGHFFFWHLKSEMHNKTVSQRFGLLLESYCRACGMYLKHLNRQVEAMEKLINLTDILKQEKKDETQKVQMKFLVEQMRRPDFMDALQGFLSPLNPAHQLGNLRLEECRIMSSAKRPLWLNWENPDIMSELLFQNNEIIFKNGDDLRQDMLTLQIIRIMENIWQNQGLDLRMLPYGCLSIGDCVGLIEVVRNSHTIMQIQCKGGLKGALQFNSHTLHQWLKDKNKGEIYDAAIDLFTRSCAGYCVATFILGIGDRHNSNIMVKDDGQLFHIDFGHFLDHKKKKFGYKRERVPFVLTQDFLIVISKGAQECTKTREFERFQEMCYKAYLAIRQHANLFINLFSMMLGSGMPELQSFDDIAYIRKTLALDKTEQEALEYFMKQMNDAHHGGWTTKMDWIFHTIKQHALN
T5 sequence (P42338 whole entry): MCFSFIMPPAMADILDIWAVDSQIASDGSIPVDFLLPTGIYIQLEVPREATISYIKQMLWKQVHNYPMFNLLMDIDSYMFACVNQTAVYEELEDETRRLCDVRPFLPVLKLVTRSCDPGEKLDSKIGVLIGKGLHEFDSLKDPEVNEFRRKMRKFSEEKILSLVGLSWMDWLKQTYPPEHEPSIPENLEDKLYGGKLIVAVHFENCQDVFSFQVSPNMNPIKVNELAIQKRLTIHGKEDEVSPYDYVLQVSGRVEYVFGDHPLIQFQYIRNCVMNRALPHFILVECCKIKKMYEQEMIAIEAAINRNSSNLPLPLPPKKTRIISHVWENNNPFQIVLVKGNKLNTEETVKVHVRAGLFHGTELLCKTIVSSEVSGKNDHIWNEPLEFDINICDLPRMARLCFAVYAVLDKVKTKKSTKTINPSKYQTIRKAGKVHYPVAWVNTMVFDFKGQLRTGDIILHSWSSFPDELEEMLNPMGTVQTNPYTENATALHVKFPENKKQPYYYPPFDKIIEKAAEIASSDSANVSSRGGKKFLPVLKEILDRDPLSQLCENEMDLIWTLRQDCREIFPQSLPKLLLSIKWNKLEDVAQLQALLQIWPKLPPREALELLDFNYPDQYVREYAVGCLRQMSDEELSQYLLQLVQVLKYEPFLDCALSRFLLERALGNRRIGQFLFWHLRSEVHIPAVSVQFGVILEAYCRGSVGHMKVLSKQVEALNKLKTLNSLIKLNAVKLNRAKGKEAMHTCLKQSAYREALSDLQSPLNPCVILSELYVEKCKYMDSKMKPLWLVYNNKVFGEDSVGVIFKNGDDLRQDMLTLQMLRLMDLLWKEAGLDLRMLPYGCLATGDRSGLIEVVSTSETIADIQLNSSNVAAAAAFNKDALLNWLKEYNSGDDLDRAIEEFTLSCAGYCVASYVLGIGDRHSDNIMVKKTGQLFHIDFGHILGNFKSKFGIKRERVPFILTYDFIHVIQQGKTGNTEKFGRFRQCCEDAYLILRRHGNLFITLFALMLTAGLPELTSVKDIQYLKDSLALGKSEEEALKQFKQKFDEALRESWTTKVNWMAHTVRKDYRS

Structure (SMILES)	melting point	Kd (kinase enzymes [1])	Kd (kinase enzymes [2])	Kd (kinase enzymes [3])	IC50 ([4]; Homo sapiens, PC-3, 1 h)	Kd (PI3Kδ)	IC50 ([5]; Homo sapiens, PC-3, 1 h)	Kd (PI3Kβ)	IC50 [4]	IC50 [5]
CC(Oc1cc(F)ccc1Br)c1cc(C(=O)N(C)C)cc2ncc(N3CCOCC3)nc12 (stereo not drawn) [Compound 78]	235 °C	3720 nM	13500 nM	> 30200 nM	~295 nM	1170 nM	~219 nM	15 nM		
COC(=O)c1cc(C(C)Nc2cc(F)cc(F)c2)c2nc(N3CCOCC3)cnc2c1 (stereo not drawn) [Compound 80]	244 °C	> 30200 nM	24500 nM	> 30200 nM		7590 nM		50 nM	~79 nM	~214 nM
CC(Nc1cc(F)cc(F)c1)c1cc(C(=O)O)cc2ncc(N3CCOCC3)nc12 (stereo not drawn) [Compound 83a]	240 °C	112 nM	813 nM	1320 nM		158 nM		2 nM	> 513 nM	> 513 nM
CC(Nc1cc(F)cc(F)c1)c1cc(CO)cc2ncc(N3CCOCC3)nc12 (stereo not drawn) [Compound 84]	80 °C	692 nM	1290 nM	8510 nM	32 nM	96 nM	56 nM	1 nM		
NCc1cc(C2CCCN2c2cc(F)cc(F)c2)c2nc(N3CCOCC3)cnc2c1 (stereo not drawn) [Compound 96]	80 °C	363 nM	302 nM	17400 nM	20 nM	83 nM	25 nM	0.4 nM		
COC(=O)c1cc(C(C)N(C)c2cccc(F)c2)c2nc(N3CCOCC3)cnc2c1 (stereo not drawn) [Compound 97]	146 °C	19100 nM	> 30200 nM	> 30200 nM	> 513 nM	> 30200 nM	> 513 nM	214 nM		
CC(c1cc(C(=O)O)cc2ncc(N3CCOCC3)nc12)N(C)c1cccc(F)c1 (stereo not drawn) [Compound 98]	240 °C	479 nM	437 nM	2240 nM	> 513 nM	955 nM	> 513 nM	47 nM		
CN(CCO)Cc1cc(C2CCCN2c2cc(F)cc(F)c2)c2nc(N3CCOCC3)cnc2c1 (stereo not drawn) [Compound 101]	80 °C	263 nM	398 nM	> 30200 nM	14 nM	40 nM	21 nM	0.4 nM		
COCCNCc1cc(C2CCCN2c2cc(F)cc(F)c2)c2nc(N3CCOCC3)cnc2c1 (stereo not drawn) [Compound 103]	80 °C	1130 nM	3000 nM	24500 nM	28 nM	1000 nM	65 nM	3 nM		
CC(Nc1cccc(F)c1)c1cc(C(=O)N2CCOCC2)cc2ncc(N3CCOCC3)nc12 (stereo not drawn) [Compound 104]	80 °C	1350 nM	17800 nM	> 30200 nM	55 nM	263 nM	110 nM	3 nM		
CC(c1cc(C(=O)N2CCOCC2)cc2ncc(N3CCOCC3)nc12)N(C)c1cccc(F)c1 (stereo not drawn) [Compound 105]	161 °C	3890 nM	28200 nM	> 30200 nM	138 nM	871 nM	302 nM	8 nM		
COCCN(C)Cc1cc(C2CCCN2c2cc(F)cc(F)c2)c2nc(N3CCOCC3)cnc2c1 (stereo not drawn) [Compound 112]	80 °C	955 nM	2400 nM	> 30200 nM	~62 nM	204 nM	174 nM	1 nM		
CC(Nc1cccc(Cl)c1)c1cc(C(=O)N2CCOCC2)cc2ncc(N3CCOCC3)nc12 (stereo not drawn) [Compound 119]	80 °C	2240 nM	11700 nM	> 30200 nM	81 nM	490 nM	105 nM	2 nM		
Cc1cccc(NC(C)c2cc(C(=O)N3CCOCC3)cc3ncc(N4CCOCC4)nc23)c1 (stereo not drawn) [Compound 120]	80 °C	6760 nM	> 30200 nM	> 30200 nM	269 nM	2190 nM	479 nM	14 nM		
COc1cccc(NC(C)c2cc(C(=O)N3CCOCC3)cc3ncc(N4CCOCC4)nc23)c1 (stereo not drawn) [Compound 121]	80 °C	5370 nM	> 30200 nM	> 30200 nM	~331 nM	1590 nM	347 nM	10 nM		
CNCCNC(=O)c1cc([C@@H](C)Oc2cccc(F)c2)c2nc(N3CCOCC3)cnc2c1 [Compound 122a]	116 °C	3700 nM	7970 nM	14100 nM		660 nM		3 nM	9 nM	12 nM
CNCCNC(=O)c1cc([C@H](C)Oc2cccc(F)c2)c2nc(N3CCOCC3)cnc2c1 [Compound 123a]	130 °C	10200 nM	11500 nM	17000 nM		5130 nM		107 nM	380 nM	> 513 nM
CC(Nc1cccc(Br)c1)c1cc(C(=O)N2CCOCC2)cc2ncc(N3CCOCC3)nc12 (stereo not drawn) [Compound 124]	80 °C	1070 nM	7760 nM	8130 nM	93 nM	575 nM	151 nM	4 nM		
CCc1cccc(NC(C)c2cc(C(=O)N3CCOCC3)cc3ncc(N4CCOCC4)nc23)c1 (stereo not drawn) [Compound 125]	80 °C	6460 nM	> 30200 nM	> 30200 nM	> 513 nM	5890 nM	> 513 nM	68 nM		
Cc1cc(C)cc(NC(C)c2cc(C(=O)N3CCOCC3)cc3ncc(N4CCOCC4)nc23)c1 (stereo not drawn) [Compound 126]	80 °C	6920 nM	> 30200 nM	> 30200 nM	275 nM	1290 nM	427 nM	13 nM		
CC(c1cc(C(=O)N2CCOCC2)cc2ncc(N3CCOCC3)nc12)N(CCO)c1cc(F)cc(F)c1 (stereo not drawn) [Compound 129]	80 °C	1780 nM	8910 nM	9770 nM	105 nM	1070 nM	112 nM	3 nM		
CNCCNC(=O)c1cc(C(C)N(C)c2cccc(F)c2)c2nc(N3CCOCC3)cnc2c1 (stereo not drawn) [Compound 130]	159 °C	363 nM	240 nM	6170 nM	65 nM	135 nM	89 nM	0.5 nM		
CC(Nc1cccc(C#N)c1)c1cc(C(=O)N2CCOCC2)cc2ncc(N3CCOCC3)nc12 (stereo not drawn) [Compound 131]	80 °C	3160 nM	20000 nM	> 30200 nM	363 nM	2510 nM	501 nM	11 nM		
CNCCNC(=O)c1cc(C(C)Nc2cc(F)ccc2F)c2nc(N3CCOCC3)cnc2c1 (stereo not drawn) [Compound 132]	80 °C	832 nM	2190 nM	11500 nM	37 nM	115 nM	52 nM	0.5 nM		
